Here are results for 5 molecules from US4554284A, “7-(2-Aminoethyl)-1,3-benzthia- or oxa-zol-2(3H)-ones” (Smithkline Beckman Corporation, priority 1984, dated 1985).

Structures are written as SMILES. Read-outs that look alike come from different tables or passages of the source.

The target in the assay is T1, D2-receptors (presynaptic dopaminergic receptors) (Oryctolagus cuniculus, UniProt G1T1Q0).
T1 construct: perfused rabbit ear artery protocol; from tissue; host or cells: rabbit ear artery (perfused, isolated)
Description: perfused rabbit ear artery protocol (D2-agonist activity). In kind it is cell-based.

Where [1] appears, read: perfused rabbit ear artery, D2-agonist activity, read-out: EC50.

T1 sequence (G1T1Q0 1-443): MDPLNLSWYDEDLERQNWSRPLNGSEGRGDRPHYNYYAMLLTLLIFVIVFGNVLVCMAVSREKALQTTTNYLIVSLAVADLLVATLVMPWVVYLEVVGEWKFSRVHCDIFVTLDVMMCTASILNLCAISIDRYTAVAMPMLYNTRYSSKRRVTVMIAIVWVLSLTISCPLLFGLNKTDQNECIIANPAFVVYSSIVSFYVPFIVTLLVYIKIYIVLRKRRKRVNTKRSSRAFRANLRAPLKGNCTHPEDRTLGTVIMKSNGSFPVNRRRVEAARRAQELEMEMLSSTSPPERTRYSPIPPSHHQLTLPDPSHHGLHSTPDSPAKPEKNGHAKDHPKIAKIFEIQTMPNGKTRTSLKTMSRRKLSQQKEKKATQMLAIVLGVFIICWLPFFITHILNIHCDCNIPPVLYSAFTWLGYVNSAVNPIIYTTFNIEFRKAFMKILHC

Take `CCCN(CCC)CCc1c(Cl)cc(O)c2nc(O)sc12` [B, 4-hydroxy-6-chloro-7-[2-(di-n-propylamino)ethyl]-1,3-benzthiazol-2(3H)-one]: the 50% effective concentration (EC50) under setting [1] turned out to be 50 nM.
Take `CCCN(CCC)CCc1ccc(O)c2[nH]c(=O)oc12` [C, 4-hydroxy-7-[2-(di-n-propylamino)ethyl]-1,3-benzoxazol-2(3H)-one]: the EC50 under setting [1] stood at 8 nM.
As to `CCCN(CCC)CCc1ccc(O)c2[nH]c(=O)sc12` [Compound A, 4-hydroxy-7-[2-(di-n-propylamino)ethyl]-1,3-benzthiazol-2(3H)-one], the “times more potent than its oxa congener” value is listed as roughly 40 times and the “times more potent than the corresponding indolone” value was 10 times. Besides, under setting [1], the concentration giving a half-maximal response (EC50) was 0.2 nM.
Molecule `NCCc1ccc(O)c(O)c1` [D, dopamine, reference compound] yielded a 50% effective concentration (EC50) of 40 nM.
Take `CCCN(CCC)CCc1ccc(O)c2[nH]c(=O)ccc12` [E, 8-hydroxy-5-[2-(di-n-propylamino)ethyl]-carbostyril, reference compound]: the EC50 under setting [1] is 200 nM.

What is called EC50 is the midpoint of the concentration-response curve.
